In brackets after ≈: the same amount, converted by molar mass. Several values for one entry are separate records, joined by “and”; a condition that tells them apart may be missing. Equal values may be shown once. Read-outs that look alike come from different tables or passages of the source.
What was measured:
[1] = Precipitation / solubility study in pH 3.0 buffer; assay type: physicochemical
Description: A precipitation study was performed to estimate the concentration at which no precipitation occurs. Initially, 12 samples of C2E2 were prepared at concentrations ranging from 40-150 mg/mL in pH 3.0 buffer in steps of 10 mg/mL. The solutions were left to stir until precipitation occurred.
Three samples of C2E2 at 60, 70 and 100 mg/mL in pH 3.0 buffer were prepared and stirred at room temperature. At 0.083, […], 1, 2, 4, 6, 20, 24 and 44 hours 0.5 mL samples were withdrawn centrifuged at 14,000×g and the concentration of supernatant measured by HPLC-CAD. At each time-point the pH of the supernatant was also measured.

[2] = Stability of C2E2 in plasma (human); assay type: in vitro ADME; settings: 37° C.
Description: (§1) Prior to the study, 975 μL of plasma (Rat, Beagle and Human) was preheated to 37° C. in Eppendorff tubes and the test compound (C2E2) was prepared in DI water (10 mg/mL). The C2E2 was from Lot 050 obtained using Method 2. To initiate the study, 25 μL of the C2E2 solution was added to the pre-heated plasma and briefly vortexed, to mix. At 0, 15, 30, 60 and 120 minutes a 100 μL sample of plasma was taken, an equal volume of cold acetonitrile was added and mixed to precipitate plasma proteins. Samples were centrifuged at 4° C. and 14,000×g for 10 minutes to remove precipitated proteins, the supernatant was collected and the C2E2 concentration determined by HPLC-CAD. All conditions were repeated in triplicate.
(§2) HPLC Detection Methods: C2E2 analysis was performed on a prominence HPLC (Shimadzu Corporation, Kyoto, Japan) equipped with a Corona Ultra charged […] detector (CAD) (Thermo scientific, Sunnyvale, Calif.). […]
(§3) The gradient is 0.01-34.99 min: 22% B; 35.00-44.99 min: 33% B; 45.00-60.00 min: 38% B. The flow rate is 1.0 mL/min, a Thermo Hypersil ODS column (150 mm 4.6 mm i.d. with 5.0 μm particles) will be used, injection volume will be 10 μL and column oven temperature maintained at 25° C. […] The limit of quantification is 0.35 μg/mL. […]

[3] = test system: Chinese hamster ovary (CHO) cells; assay: In vitro chromosomal aberration assay; assay type: cell-based
Description: The objective of this in vitro assay was to evaluate the ability of C2E2 to induce chromosomal aberrations in cultured Chinese hamster ovary (CHO) cells with and without an exogenous metabolic activation system.
C2E2 was prepared in cell culture grade water (CCGW) and formed a colorless, transparent, solution. The C2E2 was from Lot 050 obtained using Method 2. Subsequent stocks were prepared by serial dilution in vehicle and all treatments were administered into 10 mL cultures in a volume of 10%. Vehicle control cultures were treated with 100 μL/mL per culture. The treatment periods were for 3 hours with and without metabolic activation or approximately 20 hours without metabolic activation.
In an initial chromosomal aberration assay (B1 test), C2E2 concentrations of 6.92, 9.89, 14.1, 20.2, 28.8, 41.2, 58.8, 84.0, 120, 172, 245, 350, and 500 μg/mL were tested in duplicate cultures in the 3- and 20-hour tests without S9 and in the 3-hour test with S9 metabolic activation. All cultures, under all test conditions, were harvested approximately 20 hours from the initiation of treatment. At culture termination, viable cells were counted and population doubling was calculated for measurement of cytotoxicity to support selection of dose levels for aberration analysis. Visual observations of cultures for general cell health and confluence were made prior to termination.

[4] = test system: ^241Am contaminated dogs (nose-only inhalation); assay: Efficacy study in dogs, preliminary ^241Am recovery in urine and liver; assay type: in vivo, dog; settings: for Total Recovered Activity, Liver, Treatment Mean / Total Recovered Activity, Urine, Treatment Mean: dogs; for Total Recovered Activity, Liver / Total Recovered Activity, Urine: individual animals
Description: Dogs were administered ^241Am (target of 3 μCi/animal) by nose-only inhalation on Day 0. […] Group 1 was a control and was used for determining the unperturbed biokinetics. Fourteen (14) days post C2E2 administration, the animals were sedated and euthanized. Preliminary urinary excretion and liver retention data were obtained (Table 8).

[5] = Stability of C2E2 in plasma (rat); assay type: in vitro ADME; settings: 37° C., up to two hours
Description: as §1, §2, §3

[6] = C2E2 100 mg/kg oral, female dogs
[7] = C2E2 100 mg/kg oral, female dogs, 100 mg/kg
[8] = C2E2 100 mg/kg oral, male dogs, 100 mg/kg
[9] = C2E2 300 mg/kg oral, female dogs
[10] = C2E2 300 mg/kg oral, female dogs, 300 mg/kg
[11] = C2E2 300 mg/kg oral, male dogs, 300 mg/kg
[12] = C2E2 500 mg/kg oral, female dogs
[13] = C2E2 500 mg/kg oral, female dogs, 500 mg/kg
[14] = C2E2 500 mg/kg oral, male dogs, 500 mg/kg

CCOC(=O)CN(CCN(CCN(CC(=O)O)CC(=O)OCC)CC(=O)O)CC(=O)O [C2E2, 6,9-bis(carboxymethyl)-3-(2-ethoxy-2-oxoethyl)-11-oxo-12-oxa-3,6,9-triazatetradecan-1-oic acid]
Time of sudden precipitation from supersaturated solution ([1]; 100 mg/ml in pH 3.0 buffer, stirred at room temperature): 20 to 24 h
solubility ([1]; Lot 050, solutions at this concentration precipitated over time, read-out: Solubility, initially determined): 100 mg/mL (≈ 222 mM)
solubility ([1]; aqueous buffer, thermodynamic from solid, pH 3.0 buffer, room temperature, read-out: Solubility at pH 3.0): 60 to 70 mg/mL (≈ 133 to 156 mM)
C2E2 concentration above which precipitation was observed ([1]; pH 3.0 buffer, 24 hours stirring then 48 hours standing at room temperature): above 60 mg/mL
C2E2 concentration above which precipitation was observed ([1]; pH 3.0 buffer, after 24 hours stirring): above 90 mg/mL
C2E2 remaining ([2]; after 2 hours): approximately 90%
Metabolism in plasma (observation) ([2]; up to two hours): minimal or not detected
Reduction in the mitotic index compared to vehicle control ([3]; 14.1 μg/mL, 20-hour test without S9): 53%
Cytotoxicity (observation) ([3]; 3-hour treatment with and without S9, up to 500 μg/mL): no relevant cytotoxicity
Induction of chromosomal aberrations ([3]; with and without S9, up to cytotoxicity limiting dose levels and 500 μg/mL): negative
Total Recovered Activity, Liver, Treatment Mean ([4]; C2E2 100 mg/kg oral): 168.91 nCi
Total Recovered Activity, Urine, Treatment Mean ([4]; C2E2 100 mg/kg oral): 168.70 nCi
Total Recovered Activity, Liver, Gender Mean [4, 6]: 157.92 nCi
Total Recovered Activity, Urine, Gender Mean [4, 6]: 168.30 nCi
Total Recovered Activity, Liver [4, 7]: 186.4 nCi and 129.4 nCi
Total Recovered Activity, Urine [4, 7]: 193.85 nCi and 142.75 nCi
Total Recovered Activity, Liver, Gender Mean ([4]; C2E2 100 mg/kg oral, male dogs): 179.89 nCi
Total Recovered Activity, Urine, Gender Mean ([4]; C2E2 100 mg/kg oral, male dogs): 169.10 nCi
Total Recovered Activity, Liver [4, 8]: 213.3 nCi and 146.5 nCi
Total Recovered Activity, Urine [4, 8]: 187.57 nCi and 150.63 nCi
Total Recovered Activity, Liver, Treatment Mean ([4]; C2E2 300 mg/kg oral): 132.28 nCi
Total Recovered Activity, Urine, Treatment Mean ([4]; C2E2 300 mg/kg oral): 169.50 nCi
Total Recovered Activity, Liver, Gender Mean [4, 9]: 144.49 nCi
Total Recovered Activity, Urine, Gender Mean [4, 9]: 181.71 nCi
Total Recovered Activity, Liver [4, 10]: 87.6 nCi and 201.4 nCi
Total Recovered Activity, Urine [4, 10]: 121.32 nCi and 242.10 nCi
Total Recovered Activity, Liver, Gender Mean ([4]; C2E2 300 mg/kg oral, male dogs): 120.06 nCi
Total Recovered Activity, Urine, Gender Mean ([4]; C2E2 300 mg/kg oral, male dogs): 157.29 nCi
Total Recovered Activity, Liver [4, 11]: 109.2 nCi and 130.9 nCi
Total Recovered Activity, Urine [4, 11]: 97.24 nCi and 217.34 nCi
Total Recovered Activity, Liver, Treatment Mean ([4]; C2E2 500 mg/kg oral): 45.01 nCi
Total Recovered Activity, Urine, Treatment Mean ([4]; C2E2 500 mg/kg oral): 188.82 nCi
Total Recovered Activity, Liver, Gender Mean [4, 12]: 40.30 nCi
Total Recovered Activity, Urine, Gender Mean [4, 12]: 103.00 nCi
Total Recovered Activity, Liver [4, 13]: 34.3 nCi and 46.3 nCi
Total Recovered Activity, Urine [4, 13]: 65.39 nCi and 140.61 nCi
Total Recovered Activity, Liver, Gender Mean ([4]; C2E2 500 mg/kg oral, male dogs): 49.73 nCi
Total Recovered Activity, Urine, Gender Mean ([4]; C2E2 500 mg/kg oral, male dogs): 274.65 nCi
Total Recovered Activity, Liver [4, 14]: 49.4 nCi and 50.1 nCi
Total Recovered Activity, Urine [4, 14]: 288.78 nCi and 260.53 nCi
Metabolism in plasma (observation) [5]: minimal or not detected
